Assay [1] has as its target T1, GST-LXRβ ligand-binding domain (Homo sapiens, UniProt P55055).
T1 construct: amino acids 156-461; NP009052; made in house; host or cells: E. coli
T1 sequence (P55055 156-460 limits assumed): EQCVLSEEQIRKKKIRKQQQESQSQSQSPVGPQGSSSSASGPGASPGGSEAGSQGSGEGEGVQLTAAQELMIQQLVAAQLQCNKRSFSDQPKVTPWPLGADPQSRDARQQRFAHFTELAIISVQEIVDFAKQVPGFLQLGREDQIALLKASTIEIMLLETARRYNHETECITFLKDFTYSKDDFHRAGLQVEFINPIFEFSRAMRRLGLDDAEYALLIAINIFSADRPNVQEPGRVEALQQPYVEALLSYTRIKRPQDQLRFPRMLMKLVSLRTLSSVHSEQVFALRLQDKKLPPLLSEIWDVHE
Put plainly: TR-FRETβ activity assay (NCoA3 coactivator peptide recruitment). Format: biochemical. As to conditions: 1 μM 24(S)-25-epoxycholesterol prestimulation. The gist of the method: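 E. coli-expressed GST-LXRβ LBD (aa 156-461, 76 nM) with biotinylated NCoA3 peptide (400 nM) in Tris/HCl pH 6.8 containing 1 μM 24(S)-25-epoxycholesterol agonist. Compounds tested at 50 μM down to 0.002 μM in triplicate. TR-FRET (Tb cryptate/XL665, ex 340, em 615/665 nm) read after 1 h at 4° C.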

A further assay addresses T2, LXRβ (Homo sapiens, UniProt P55055).
T2 sequence (P55055 1-460): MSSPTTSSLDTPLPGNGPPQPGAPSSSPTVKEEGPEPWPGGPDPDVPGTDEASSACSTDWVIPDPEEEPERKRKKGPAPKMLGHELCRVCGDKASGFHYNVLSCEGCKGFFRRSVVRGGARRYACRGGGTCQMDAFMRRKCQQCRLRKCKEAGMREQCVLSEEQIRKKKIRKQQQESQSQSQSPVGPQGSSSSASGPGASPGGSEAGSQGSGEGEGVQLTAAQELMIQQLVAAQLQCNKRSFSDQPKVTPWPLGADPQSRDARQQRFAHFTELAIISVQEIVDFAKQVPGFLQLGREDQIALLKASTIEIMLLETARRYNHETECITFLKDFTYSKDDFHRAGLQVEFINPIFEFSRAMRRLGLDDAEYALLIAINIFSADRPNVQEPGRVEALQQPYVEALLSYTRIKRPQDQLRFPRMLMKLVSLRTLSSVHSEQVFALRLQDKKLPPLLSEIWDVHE
The assay is described as follows: LXR Gal4 reporter transient transfection assay (mammalian two-hybrid, HEK293), LXRβ. Set-up: LXRβ (amino acids 156-461); expressed in transfected cells; host or cells: HEK293. The following applies: full length (FL) LXRβ, HEK293; read-out: FL-M2H Gal4β. Format: cell-based. The protocol: LXRα and LXRβ activity status was determined via detection of interaction with coactivator and corepressor proteins in mammalian two-hybrid experiments (M2H). For this, via transient transfection the full length (FL) proteins of LXRα (amino acids 1-447; NP005684; SEQ ID NO:1) or LXRβ-(amino acids 1-461; NP009052; SEQ ID NO:2) or the ligand-binding domains (LBD) of LXRα (amino acids 155-447 SEQ ID NO:3) or LXRβ (amino acids 156-461; SEQ ID NO:4) were expressed from pCMV-AD (Stratagene) as fusions to the transcriptional activation domain of NFkB. As cofactors, domains of either the steroid receptor coactivator 1 (SRC1; amino acids 552-887; SEQ ID NO:5) or of the corepressor NCoR (amino acids 1906-2312; NP006302; SEQ ID NO:6) were expressed as fusions to the DNA binding domain of the yeast transcription factor GAL4 (from pCMV-BD; Stratagene). Interaction was monitored via activation of a coexpressed Firefly Luciferase Reporter gene under control of a promoter containing repetitive GAL4 response elements (vector pFRLuc; Stratagene). Transfection efficiency was controlled via cotransfection of constitutively active pRL-CMV Renilla reniformis luciferase reporter (Promega). HEK293 cells were grown in minimum essential medium (MEM) with 2 mM L-glutamine and Earle's balanced salt solution supplemented with 8.3% fetal bovine serum, 0.1 mM non-essential amino acids, 1 mM sodium pyruvate, at 37° C. in 5% CO2. 3.5×10^4 cells/well were plated in 96-well cell culture plates in growth medium supplemented with 8.3% fetal bovine serum for 16-20 h to ˜90% confluency. For transfection, medium was taken off and LXR and cofactor expressing plasmids as well as the reporter plasmids are added in 30 μL OPTIMEM/well including polyethylene-imine (PEI) as vehicle. Typical amounts of plasmids transfected/well: pCMV-AD-LXR (5 ng), pCMV-BD-cofactor (5 ng), pFR-Luc (100 ng), pRL-CMV (0.5 ng). Compound stocks were prepared in DMSO, prediluted in MEM to a total volume of 120 μL, and added 4 h after addition of the transfection mixture (final vehicle concentration not exceeding 0.2%). Cells were incubated for additional 16 h, lysed for 10 min in 1×Passive Lysis Buffer (Promega) and Firefly and Renilla luciferase activities were measured sequentially in the same cell extract using buffers containing D-luciferine and coelenterazine, respectively. Measurements of luminescence were done in a BMG-luminometer.
The potencies of Compound 21/3 and its analog, Compound pre-6/3, against LXRα and LXRβ were evaluated in biochemical binding assays, cellular mammalian two-hybrid (M2H) interaction assays evaluating nuclear receptor co-repressor (NCOR) recruitment, and cellular reporter assays evaluating transcriptional activity (Table 5).

Structures are written as SMILES.

As to `N#Cc1cccc(C#N)c1-c1c(-c2cccc(-c3ccc(C(=O)O)cc3Cl)c2)n(S(=O)(=O)c2ccc(C(F)F)cc2)c2cnc(O)cc12` [3/70], the EC50 (in assay [1]; on LXRβ) was 100 to 1000 nM each time.
For the compound `Cc1ccc(S(=O)(=O)n2c(-c3cccc(-c4ccc(CN)cc4Cl)c3)c(-c3ccsc3C#N)c3cc(F)ccc32)cc1` [2/1], the EC50 (in assay [1]; at LXRβ) was 100 to 1000 nM in each case.
In the case of `Cc1ccc(S(=O)(=O)n2c(-c3cccc(N4CC(C(=O)O)C4)c3)c(-c3ccsc3CCO)c3cc(F)ccc32)cc1` [3/27], the results for the EC50 (in assay [1]; at LXRβ) were 1000 to 10000 nM and 100 to 1000 nM, respectively.
The corresponding values for `Cc1ccc(S(=O)(=O)n2c(-c3cccc(-c4ccc(C(=O)O)c(C)c4Cl)c3)c(-c3ccsc3C#N)c3cc(F)ccc32)cc1` [12/1] are 100 to 1000 nM and below 100 nM.
As to `Cc1ccc(S(=O)(=O)n2c(-c3cccc(-c4ccc(C(=O)O)c(Cl)c4)c3)c(-c3ccsc3C#N)c3cc(F)ccc32)cc1` [3/49], the EC50 is 100 to 1000 nM in assay [1] and below 100 nM on LXRβ.
Taken in the same sequence, the figures for `N#Cc1ccc(S(=O)(=O)n2c(-c3cccc(-c4ccc(C(=O)O)cc4Cl)c3)c(-c3ccsc3C#N)c3cc(F)ccc32)cc1` [11/20] were 100 to 1000 nM and below 100 nM.
The corresponding values for `N#Cc1sccc1-c1c(-c2cccc(N3CC(C(=O)O)C3)c2)n(S(=O)(=O)c2ccc(Cl)cc2)c2ccc(F)cc12` [5/7] are 100 to 1000 nM and below 100 nM.
`N#Cc1sccc1-c1c(-c2cccc(-c3ccc(C(=O)O)cc3Cl)c2)n(S(=O)(=O)c2ccc(F)cc2)c2ccc(F)cc12` [11/18]: the EC50 in assay [1] is 100 to 1000 nM; at LXRβ, below 100 nM.
The corresponding values for `N#Cc1sccc1-c1c(-c2cccc(N3CC(C(=O)O)C3)c2)n(S(=O)(=O)c2ccc3ccccc3c2)c2ccc(F)cc12` [3/13] are 1000 to 10000 nM and below 100 nM.
Taken in the same sequence, the figures for `Cc1ccc(S(=O)(=O)n2c(-c3cccc(-c4cc(C(=O)O)n[nH]4)c3)c(-c3ccsc3C#N)c3cc(F)ccc32)cc1` [12/6] were 1000 to 10000 nM and 1000 to 10000 nM.
Taken in the same sequence, the figures for `O=C(O)c1ccc(-c2cccc(-c3c(-c4ccsc4C(F)F)c4cc(F)ccc4n3S(=O)(=O)c3ccc(Cl)cc3)c2)c(Cl)c1` [11/21] were below 100 nM and below 100 nM.
Consider `Cc1ccc(S(=O)(=O)n2c(-c3cccc(C4CC5(CC(C(=O)O)C5)C4)c3)c(-c3ccsc3C#N)c3cc(F)ccc32)cc1` (stereo not drawn) [3/65], for which the results for the EC50 (in assay [1]; on LXRβ) were 100 to 1000 nM and below 100 nM, respectively.
The corresponding values for `Cc1cccc(C(F)F)c1-c1c(-c2cccc(-c3ccc(C(=O)O)cc3Cl)c2)n(S(=O)(=O)c2ccc(C(F)F)cc2)c2ccc(F)cc12` [11/38] are below 100 nM and below 100 nM.
The corresponding values for `Cc1ccc(S(=O)(=O)n2c(-c3cccc(-c4ccc(CO)c(S(=O)(=O)CC(=O)O)c4)c3)c(-c3ccsc3C#N)c3ccccc32)cc1` [5/1] are 100 to 1000 nM and 100 to 1000 nM.
For the compound `Cc1ccc(S(=O)(=O)n2c(-c3cccc(-c4ccc(C(C)(O)C(=O)O)cc4)c3)c(-c3ccsc3C#N)c3cc(F)ccc32)cc1` (stereo not drawn) [3/55], the results for the EC50 (in assay [1]; at LXRβ) were 100 to 1000 nM and below 100 nM, respectively.
As for `O=C(O)c1ccc(-c2cccc(-c3c(-c4ccccc4C4(F)CNC4)c4cc(F)ccc4n3S(=O)(=O)c3ccc(C(F)F)cc3)c2)c(Cl)c1` [3/61], the EC50 (in assay [1]; at LXRβ) was 100 to 1000 nM throughout.
For `CC(C)(C)OC(=O)CNC(=O)c1ccc(-c2cccc(-c3c(-c4c(C#N)cccc4C#N)c4cc(F)ccc4n3S(=O)(=O)c3ccc(C(F)F)cc3)c2)c(Cl)c1` [6/3], the EC50 (in assay [1]; at LXRβ) was below 100 nM each time.
For `CC(C)(O)c1ccc(S(=O)(=O)n2c(-c3cccc(-c4ccc(C(=O)O)cc4Cl)c3)c(-c3ccccc3C#N)c3cc(F)ccc32)cc1` [30/16], the EC50 was in the range of 1000 to 10000 nM in assay [1] and 100 to 1000 nM on LXRβ.
The corresponding values for `Cc1ccc(S(=O)(=O)n2c(-c3cccc(N4CC(C(=O)O)C4)c3)c(-c3ccsc3C(F)(F)F)c3cc(F)ccc32)cc1` [3/30] are 100 to 1000 nM and below 100 nM.
Taken in the same sequence, the figures for `N#Cc1ccccc1-c1c(-c2cccc(-c3ccc(C(=O)O)cc3F)c2)n(S(=O)(=O)c2ccc(C(F)F)cc2)c2ccc(F)cc12` [11/31] were below 100 nM and below 100 nM.
The corresponding values for `N#Cc1ccccc1-c1c(-c2cccc(-c3ccc(C(=O)O)c4c3OCO4)c2)n(S(=O)(=O)c2ccc(C(F)F)cc2)c2ccc(F)cc12` [11/28] are below 100 nM and below 100 nM.
Consider `Cc1ccc(S(=O)(=O)n2c(-c3cccc(-c4ccc5c(C(=O)O)n[nH]c5c4)c3)c(-c3ccsc3C#N)c3cc(F)ccc32)cc1` [12/9], for which the EC50 (in assay [1]; at LXRβ) was 100 to 1000 nM throughout.
Regarding `Cc1ccc(S(=O)(=O)n2c(-c3cccc(-c4ccc(C(=O)O)cc4Cl)c3)c(-c3ccc(C)cc3C#N)c3cc(F)ccc32)cc1` [11/4], the EC50 is 100 to 1000 nM in assay [1] and below 100 nM on LXRβ.
The corresponding values for `Cc1ccc(S(=O)(=O)n2c(-c3cccc(-c4cccc(S(C)(=O)=Nc5nnn[nH]5)c4)c3)c(-c3ccsc3C#N)c3cc(F)ccc32)cc1` (stereo not drawn) [37/1] are 100 to 1000 nM and 100 to 1000 nM.
Taken in the same sequence, the figures for `O=C(O)c1ccc(-c2cccc(-c3c(-c4ccccc4C4COC4)c4cnccc4n3S(=O)(=O)c3ccc(C(F)F)cc3)c2)c(Cl)c1` [8/3] were 100 to 1000 nM and below 100 nM.
As for `COc1cccnc1-c1c(-c2cccc(-c3ccc(C(=O)O)cc3Cl)c2)n(S(=O)(=O)c2ccc(C(F)F)cc2)c2ccc(F)cc12` [11/40], the EC50 in assay [1] is 100 to 1000 nM; on LXRβ, below 100 nM.
On to `COc1sccc1-c1c(-c2cccc(N3CC(C(=O)O)C3)c2)n(S(=O)(=O)c2ccc(C)cc2)c2ccc(F)cc12` [3/3], for which the EC50 in assay [1] was 1000 to 10000 nM; at LXRβ, 100 to 1000 nM.
Taken in the same sequence, the figures for `[2H]c1c([2H])c(S(=O)(=O)n2c(-c3cccc(-c4ccc(C(=O)O)cc4Cl)c3)c(-c3ccsc3C#N)c3cc(F)ccc32)c([2H])c([2H])c1C([2H])([2H])[2H]` [3/22] were below 100 nM and below 100 nM.
The corresponding values for `N#Cc1cccc(C#N)c1-c1c(-c2cccc(-c3ccc(C(=O)O)c(F)c3F)c2)n(S(=O)(=O)c2ccc(C(F)F)cc2)c2ccc(F)cc12` [11/52] are below 100 nM and below 100 nM.
The corresponding values for `COc1cc(F)cc2c(-c3ccsc3C#N)c(-c3cccc(-c4ccc(C(=O)O)cc4)c3)n(S(=O)(=O)c3ccc(C)cc3)c12` [3/53] are below 100 nM and below 100 nM.

Source of the values: US20260083704A1, “LXR MODULATORS WITH BICYCLIC CORE MOIETY FOR TREATING DYSLIPIDEMIAS” (OrsoBio, Inc., priority 2022, published 2026).
